Experimental data: patent publication US20260083742A1, “HOMOLOGOUS RECOMBINATION REPAIR DEFICIENCY (HRD) AS A PREDICTIVE BIOMARKER FOR TREATING CANCER WITH WEE1 INHIBITORS” (Zeno Management, Inc., priority 2023, published 2026)
pIC50: −log10 of the molar value. Where two headings read alike, the source gives them in different places.

Columns and labels:
[1] = tested on: MDA-MB-436 Nir^R (BRCA reversion) TNBC cell line; test: In vitro activity (IC50) in niraparib-resistant MDA-MB-436; assay type: cell-based
Protocol: (§1) Cells with BRCA reversion mutations may be considered HRD+due to genome instability (such as TAI, LST, LOH). BRCA reversion mutation is an established mechanism of resistance to both platinum-based chemotherapeutic drugs and PARP inhibitors. In vivo exploration of WEE1 inhibitors (azenosertib, adavosertib) and PARP inhibitors (niraparib, olaparib) was evaluated.
(§2) MDA-MB-436 PARP inhibitor-resistant lines were generated by long-term in vitro treatment with a PARP inhibitor that is olaparib (Ola^R) or niraparib (Nir^R).

[2] = tested on: MDA-MB-436 Ola^R (BRCA reversion) TNBC cell line; test: In vitro activity (IC50) in olaparib-resistant MDA-MB-436; assay type: cell-based
Protocol: as §1, §2

[3] = tested on: parental MDA-MB-436 TNBC cell line; test: In vitro activity (IC50) in parental MDA-MB-436; assay type: cell-based
Protocol: as §1, §2

[4] = tested on: HCC1937 PARP inhibitor-resistant TNBC xenograft; test: HCC1937 TNBC xenograft tumor growth inhibition; assay type: in vivo, mice; details: olaparib 100 mg/kg QD
Protocol: Anti-tumor activity of azenosertib monotherapy or in combination with olaparib was evaluated in the HCC1937 model in vivo in mice (FIG. 9), and Table 11 summarizes the groups and treatments. […] Treatment with monotherapy olaparib at 100 mg/kg QD confirmed HCC1937 resistance to the PARP inhibitor.

[5] = tested on: 22RV1 (prostate cancer cell line) subcutaneous xenografts; test: 22RV1 subcutaneous xenograft tumor growth inhibition; assay type: in vivo, CB17 SCID mice
Protocol: The prostate cancer cell line 22RV1 harbors a BRCA2 pathogenic mutation (HRD+). Briefly, 72 tumor-bearing mice were randomized and assigned into nine groups using a randomized block design based on their tumor volumes with eight mice per group. Each mouse was inoculated subcutaneously at the right flank with 22RV1 tumor cells in 0.2 mL mixture of Matrigel (5×10^6 cells/mouse). Treatments were started when the tumor size reached 199.94 mm^3 for tumor efficacy studies (Day 14 post inoculation). [table] Tumor size was measured twice weekly in two dimensions using caliper and expressed in mm3 using the formula: where a and b were long and short diameters of the tumor. The tumor size was used for calculations of T/C %. The T/C(%) was calculated according to the following formula: Two-way ANOVA followed by Bonferroni post-test was performed to compare tumor volumes among vehicle and other groups.

[6] = tested on: SUM149PT TNBC xenograft (BRCA1 splice isoform Δ11q); test: SUM149PT TNBC xenograft tumor growth inhibition; assay type: in vivo, mice
Protocol: SUM149PT is a TNBC xenograft model harboring a BRCA1 splice isoform (Δ11q) that produces a truncated, partially functional protein which thereby promotes PARP inhibitor resistance. Azenosertib monotherapy and its combination with olaparib or AZD5305 was evaluated in the SUM149PT model in vivo in mice (FIGS. 10A-10B), and Table 12 summarizes the groups and treatments. Single agent treatment with olaparib at 100 mg/kg QD (FIG. 10A) or with the PARP1 selective inhibitor, AZD5305, at 0.1 or 1 mg/kg QD (FIG. 10B) confirmed SUM149PT resistance to PARP inhibitors.

[7] = Body weight loss and clinical observations in TNBC PDX study; details: azenosertib 60 mg/kg and/or niraparib 35 mg/kg p.o., (5 days on, 2 days off) × 4
Protocol: Animals were treated with 60 mg/kg azenosertib or 35 mg/kg niraparib alone or in combination on an intermittent dosing regimen of once a day for 5 days followed by 2 days off (qd x5, 2 days off) for 4 cycles (28 days).
Relative body weight (RBW) is calculated for each measurement by dividing the body weight by the body weight at the start of treatment. Individual body weight loss percent is given by the formula: […]
where BWx is the BW at any day during the treatment and BW0 is the BW on the day of inclusion.
Mean body weight loss percent is given by the formula: […]
where BWx is the mean BW at any day during the treatment and BW0 is the mean BW on the day of inclusion.
Mean relative body weight (RBW) curves were obtained by plotting the mean RBW against time for each experimental group. Delta relative body weights (relative body weights of treated group compared to relative body weights of control group) were used for statistical analysis.

[8] = Body weight loss and clinical observations in ovarian PDX study; assay type: in vivo
Protocol: Relative Body Weight (RBW), individual body weight and mean body weight loss percent were calculated for each measurement by dividing the body weight by the body weight at the start of treatment as described in Example 3.

[9] = MDA-MB-436 Ola^R, read-out: In vitro activity (IC50) Olaparib^R (BRCA reversion)
[10] = parental MDA-MB-436, read-out: In vitro activity (IC50) Wild Type
[11] = olaparib 50 mg/kg p.o. qd × 5 3 cycle
[12] = Homo sapiens, MDA-MB-436 Ola^R, read-out: In vitro activity (IC50) Olaparib^R (BRCA reversion)
[13] = Homo sapiens, parental MDA-MB-436, read-out: In vitro activity (IC50) Wild Type
[14] = niraparib 30 mg/kg p.o. qd × 5 3 cycle
[15] = azenosertib 60 mg/kg and/or niraparib 35 mg/kg p.o., (5 days on, 2 days off) × 4

For `C[C@@H]1COCCN1c1cc(C2([S@](C)(=N)=O)CC2)nc(-c2cc[nH]c3nccc2-3)n1` [AZD6738], the pIC50 [1] was 5.75, the pIC50 [2, 9] was 5.73 and the pIC50 [3, 10] was 5.44.

In the case of `O=C(c1cc(Cc2n[nH]c(=O)c3ccccc23)ccc1F)N1CCN(C(=O)C2CC2)CC1` [Olaparib, olaparib], the pIC50 ([1]; Homo sapiens) was less than 5.00, the “anti-tumor activity of monotherapy” value [4] was “resistance” and the “% TGI Day 5” value [5, 11] was 33.81%. The “% TGI Day 8” value [5, 11] was 26.80%, the “% TGI Day 12” value [5, 11] was 18.2% and the “% TGI Day 15” value [5, 11] was 5.03%. For the same compound, the “% TGI Day 19” value [5, 11] was 14.79%, the “anti-tumor activity of single agent” value ([6]; olaparib 100 mg/kg QD) was “resistance” and the pIC50 [2, 12] was less than 5.00. The pIC50 [3, 13] was 7.02.

For `CCc1cc2ncc(CN3CCN(c4ccc(C(=O)NC)nc4)CC3)cc2[nH]c1=O` [AZD5305, saruparib], the “anti-tumor activity of single agent” value ([6]; AZD5305 0.1 or 1 mg/kg QD) was “resistance”.

In the case of `NC(=O)c1cccc2cn(-c3ccc([C@@H]4CCCNC4)cc3)nc12` [Niraparib, niraparib], the pIC50 ([1]; Homo sapiens) was 5.06, the “% TGI Day 5” value [5, 14] was 31.64% and the “% TGI Day 8” value [5, 14] was 18.17%. For the same compound, the “% TGI Day 12” value [5, 14] was 21.99%, the “% TGI Day 15” value [5, 14] was 4.28% and the “% TGI Day 19” value [5, 14] was −1.28%. The pIC50 [2, 12] was 5.11, the “Max. individual BWL” value [7] was 6.2% and the “Max. mean BWL” value [7] was 3.4%. For the same compound, the pIC50 [3, 13] was 6.99, the “Max. individual BWL” value [8, 15] was 7.0% and the “Max. mean BWL” value [8, 15] was 1.5%. The “tolerability (body weight data and clinical observations)” value ([8]; azenosertib at 60 mg/kg, niraparib at 35 mg/kg, single agents or in combination) was “well tolerated”.

Work on `Cc1cc2ncnn2cc1Nc1ncc2c(n1)n(C1CCOCC1)c(=O)n2C` [AZD7648] yielded a pIC50 [1] of less than 5.00, a pIC50 [2, 9] of less than 5.00 and a pIC50 [3, 10] of less than 5.00.

Compound `CN(C)CCCOc1ccc(-c2ccc3ncc4c(c3c2)n(C2CCOCC2)c(=O)n4C)cn1` [AZD0156] has a pIC50 [1] of 5.68, a pIC50 [2, 9] of 5.70 and a pIC50 [3, 10] of 5.30.

For `Cn1cc(-c2cnn3c(N)c(Br)c([C@@H]4CCCNC4)nc23)cn1` [MK8776], the pIC50 ([2]; Homo sapiens, MDA-MB-436, read-out: In vitro activity (IC50) Olaparib^R (BRCA reversion)) was 5.22 and the pIC50 ([3]; Homo sapiens, MDA-MB-436, read-out: In vitro activity (IC50) Wild Type) was less than 5.00.
